We go through eleven molecules from ChEMBL document CHEMBL1201862, “PubChem BioAssay data set” (2004).

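Cultured in 96-well plates, cells were exposed to test compound for 48 hours across five concentrations. GI50 is the concentration that inhibits growth by half.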 Active and inactive are the calls of the source. Rule as the data show it: active = GI50 up to about 1.1 µM and inactive = higher.

Test systems include EKVX; BT-549; COLO 205; MCF7; HL-60; MDA-N; ACHN; UACC-257; A549; CAKI-1; CCRF-CEM; HCT-116; DU-145; PC-3; 786-0; IGROV-1; SNB-75; NCI-H23.
What all share (assay): DTP human tumour cell line panel, 48 h

For `CN(C)c1ccc(C=C2N=C(c3ccccc3)N(c3cc(C(=O)c4ccccc4)ccc3N3C(=O)/C(=C/c4ccc(N(C)C)cc4)N=C3c3ccccc3)C2=O)cc1`, the GI50 in the experiment with EKVX is 20.5 µM (inactive); in the experiment with BT-549 it was 28.3 µM (inactive); in the experiment with COLO 205 it was 3.74 µM (inactive); with MCF7, 3.33 µM (inactive); in the experiment on HL-60 it was 5.01 µM (inactive); with MDA-N, 2.16 µM (inactive). Moreover, the GI50 is 6.31 µM (inactive) with ACHN; 6.43 µM (inactive) with UACC-257; 6.31 µM (inactive) with A549; 14 µM (inactive) in the experiment on CAKI-1; 3.49 µM (inactive) with CCRF-CEM; 3.76 µM (inactive) with HCT-116. Further, the GI50 was 5.74 µM (inactive) in the experiment on DU-145; 3.51 µM (inactive) in the experiment with PC-3; 6.17 µM (inactive) in the experiment on 786-0; 5.86 µM (inactive) with IGROV-1; 4.78 µM (inactive) in the experiment on SNB-75.

As for `O=C1N[C@@H]2c3c(Br)sc(Br)c3C(=O)[C@@H]2O1`, the GI50 was 2.83 µM (inactive) with NCI-H23; 2.13 µM (inactive) in the experiment on EKVX; 8.57 µM (inactive) in the experiment with BT-549; 2.56 µM (inactive) in the experiment with COLO 205; 3.98 µM (inactive) in the experiment on MCF7; 0.743 µM (active) in the experiment on HL-60. The GI50 with MDA-N is 2.44 µM (inactive); in the experiment with ACHN it was 1.85 µM (inactive); with UACC-257, 3.32 µM (inactive); in the experiment on A549, 16.4 µM (inactive); in the experiment on CAKI-1, 0.877 µM (active); with CCRF-CEM it was 1.57 µM (inactive). In addition, the GI50 with DU-145 was 15 µM (inactive); in the experiment with PC-3, 6.41 µM (inactive); in the experiment with 786-0 it was 7.11 µM (inactive); in the experiment with IGROV-1 it was 4.84 µM (inactive); with SNB-75, 6.14 µM (inactive).

For the molecule `COC(=O)c1ccccc1C#CCCCOS(C)(=O)=O`, the GI50 in the experiment with NCI-H23, in the experiment with EKVX, in the experiment with BT-549, with COLO 205, with MCF7 and with HL-60 was > 10 µM (inactive) each time. For the same molecule, the GI50 with MDA-N, in the experiment with ACHN, in the experiment with UACC-257, in the experiment on A549, in the experiment on CAKI-1 and in the experiment with CCRF-CEM was > 10 µM (inactive) in each case. Besides, the GI50 with HCT-116, in the experiment on DU-145, in the experiment with PC-3, in the experiment on 786-0 and in the experiment on IGROV-1 was > 10 µM (inactive) throughout.

In the case of `O=P(O)(O)CCP(=O)(O)O`, the GI50 in the experiment on NCI-H23 was > 100 µM (inactive); with EKVX, > 100 µM (inactive); with BT-549 it was > 100 µM (inactive); in the experiment on COLO 205 it was > 100 µM (inactive); in the experiment on MCF7 it was > 100 µM (inactive); in the experiment with HL-60 it was 61.1 µM (inactive). Moreover, the GI50 in the experiment on MDA-N was > 100 µM (inactive); in the experiment with ACHN, > 100 µM (inactive); with UACC-257, 5.62 µM (inactive); with A549, > 100 µM (inactive); in the experiment on CAKI-1 it was > 100 µM (inactive); in the experiment with CCRF-CEM, > 100 µM (inactive). The GI50 with HCT-116, in the experiment on DU-145, with PC-3, in the experiment with 786-0 and in the experiment on IGROV-1 was > 100 µM (inactive) each time.

Consider `CCOC(=O)/C=C/C1=C(Br)[C@@]2(C)CC[C@@H]3c4ccc(O)cc4CC[C@H]3[C@@H]2C1`, for which the GI50 is 13.7 µM (inactive) in the experiment with NCI-H23; 17.1 µM (inactive) in the experiment on EKVX; 14.3 µM (inactive) with BT-549; 17.8 µM (inactive) in the experiment with COLO 205; 13.6 µM (inactive) with MCF7; 17.9 µM (inactive) in the experiment with HL-60. For the same molecule, the GI50 was 13.8 µM (inactive) in the experiment on MDA-N; 15.7 µM (inactive) in the experiment with ACHN; 13.9 µM (inactive) in the experiment with UACC-257; 16.9 µM (inactive) in the experiment with A549; 16.4 µM (inactive) in the experiment on CAKI-1; 7.83 µM (inactive) in the experiment with CCRF-CEM. The GI50 in the experiment on HCT-116 was 13.7 µM (inactive); with DU-145 it was 6.87 µM (inactive); in the experiment on PC-3, 15.2 µM (inactive); in the experiment on 786-0, 12.8 µM (inactive); in the experiment with IGROV-1, 12.2 µM (inactive).

As for `COc1ccc(/C=C/NC=O)cc1`, the GI50 with NCI-H23, in the experiment on EKVX, with BT-549, with COLO 205, in the experiment with MCF7 and with HL-60 was > 100 µM (inactive) each time. Moreover, the GI50 in the experiment on MDA-N, in the experiment on ACHN, in the experiment with UACC-257, in the experiment with A549, with CCRF-CEM and with HCT-116 was > 100 µM (inactive) each time. In addition, the GI50 in the experiment on DU-145 is > 100 µM (inactive); in the experiment with PC-3, > 100 µM (inactive); with 786-0, > 100 µM (inactive); in the experiment on IGROV-1, > 100 µM (inactive); with SNB-75, 18.1 µM (inactive).

For `Cc1ccc(CS(=O)(=O)C/N=C2\Sc3ccccc3N\C2=C/C(=O)c2ccc(Cl)cc2)cc1`, the GI50 in the experiment with NCI-H23 was > 10 µM (inactive); in the experiment on BT-549 it was > 10 µM (inactive); in the experiment on COLO 205, > 10 µM (inactive); in the experiment on MCF7 it was 0.703 µM (active); with HL-60, 1 µM (active); in the experiment on MDA-N, > 10 µM (inactive). Further, the GI50 was > 10 µM (inactive) in the experiment with ACHN; > 10 µM (inactive) with UACC-257; > 10 µM (inactive) in the experiment on A549; > 10 µM (inactive) in the experiment with CAKI-1; 1 µM (active) with CCRF-CEM; > 10 µM (inactive) in the experiment on HCT-116. For the same molecule, the GI50 was > 10 µM (inactive) in the experiment on DU-145; > 10 µM (inactive) in the experiment on PC-3; > 10 µM (inactive) with 786-0; > 10 µM (inactive) in the experiment on IGROV-1; 3.86 µM (inactive) with SNB-75.

With `CC(NC(=O)C(C)C(=O)Nc1ccc(C(F)(F)F)cc1)C(N)=O` (stereo not drawn), the GI50 in the experiment on NCI-H23, with EKVX, in the experiment on BT-549, in the experiment with COLO 205, in the experiment with MCF7 and in the experiment with HL-60 was > 100 µM (inactive) throughout. Further, the GI50 with MDA-N, in the experiment with ACHN, with UACC-257, with A549, with CAKI-1 and in the experiment on CCRF-CEM was > 100 µM (inactive) in each case. Moreover, the GI50 in the experiment on HCT-116, in the experiment on DU-145, in the experiment on PC-3, in the experiment with 786-0, in the experiment with IGROV-1 and in the experiment with SNB-75 was > 100 µM (inactive) each time.

Take `CN(c1c(Cl)cccc1Cl)S(=O)(=O)c1ccccc1[N+](=O)[O-]`: the GI50 in the experiment with NCI-H23 is > 100 µM (inactive); in the experiment on EKVX, > 100 µM (inactive); in the experiment on BT-549 it was > 100 µM (inactive); with COLO 205, > 100 µM (inactive); with MCF7, > 100 µM (inactive); with HL-60, > 10 µM (inactive). The GI50 with MDA-N, in the experiment with ACHN, in the experiment with UACC-257, in the experiment on A549, in the experiment on CAKI-1 and in the experiment on HCT-116 was > 100 µM (inactive) throughout. Also, the GI50 in the experiment on DU-145, with PC-3, with 786-0, with IGROV-1 and with SNB-75 was > 100 µM (inactive) each time.

As to `Cc1ccc2c(=O)c3cccc(CC(=O)O)c3[nH]c2c1C`, the GI50 in the experiment on NCI-H23 was > 100 µM (inactive); in the experiment with EKVX, > 100 µM (inactive); with BT-549, > 100 µM (inactive); in the experiment with COLO 205 it was > 100 µM (inactive); with MCF7, 71.6 µM (inactive); in the experiment on HL-60 it was > 100 µM (inactive). In addition, the GI50 with MDA-N, with ACHN, with UACC-257, in the experiment with A549, with CAKI-1 and in the experiment with CCRF-CEM was > 100 µM (inactive) in each case. Also, the GI50 in the experiment with HCT-116, in the experiment with DU-145, in the experiment with PC-3, in the experiment with 786-0 and in the experiment with IGROV-1 was > 100 µM (inactive) throughout.

For the molecule `O=C1CC(=O)n2cnc3cccc(c32)N1`, the GI50 with NCI-H23, in the experiment on EKVX, in the experiment on BT-549, in the experiment with COLO 205, with MCF7 and in the experiment with HL-60 was > 100 µM (inactive) throughout. Further, the GI50 with MDA-N, in the experiment on UACC-257, in the experiment on A549, with CAKI-1, in the experiment on CCRF-CEM and with HCT-116 was > 100 µM (inactive) in each case. In addition, the GI50 in the experiment on DU-145, with PC-3, in the experiment with 786-0, in the experiment with IGROV-1 and with SNB-75 was > 100 µM (inactive) in each case.
